How the values were obtained:
CDK12 = experiment: Co-immunoprecipitation of CRIF1 with CDK12; format: binding, human; details: native complexes
Description: FIGS. 5A-5I. The Mitochondrial OX-PHOS Regulator, CRIF1, is a Novel Subunit of the Human CDK12 Kinase Complex. (A) Identification of CRIF1 as a near-stoichiometric subunit of the native CDK12 kinase complex. MudPIT analysis of CDK12 complexes from HEK293 cells that stably express HA-tagged full-length human CDK12. The HA-CDK12 complex was affinity-purified using anti-HA antibody and visualized by SDS-PAGE and silver-stain. (B) List of the identified proteins in the HA-CDK12 complex from (A). (C) Endogenous CRIF1 co-immunoprecipitates with native CDK12 in U2OS cell extracts. Shown is an immunoblot analysis of CRIF1, CCNK, and the chaperone proteins CDC37 and HSP90 in an anti-CDK12 immunoprecipitate. […] Native CRIF1 was immunoprecipitated from U2OS cells using an anti-CRIF1 antibody and analyzed by co-immunoprecipitation for association with various CDKs, as indicated. […] FLAG-CRIF1 proteins containing different C-terminal truncations were co-expressed with HA-CDK12 (aa 985-1490) and analyzed for binding by co-immunoprecipitation and immunoblot. […] Cell viability was analyzed after 72 hr. […] Expression of the mitochondrial MTCO-1 (COX1) protein was assessed using two different antisera. […] Each fraction (T; total, C:cytosolic, M:membrane/organelle, and N:nuclear) was analyzed by immunoblot using the indicated antibodies. […]
It was next evaluated how CRIF1 targets CDK12. […]

[1] = molecular target: T1, mTORC1/Raptor kinase complex (Homo sapiens, UniProt P42345); experiment: In vitro kinase assay: mTORC1 phosphorylation of recombinant 4E-BP1 (T37/46); format: biochemical; details: same reactions with CDK12 and mTORC1/Raptor
T1 construct: made in house
Description: To enable priming of 4E-BP1 by mTORC1, these reactions contained both affinity-purified CDK12 and the mTORC1/Raptor kinase complexes. […] Consistent with a gain-of-function for CDK12 kinase activity in CRIF1 knockdown cells, enhanced binding of eIF4G to target mRNAs was observed (FIG. 6H, upper panel) that were identified previously by RIP-seq, with no effects on total mRNA levels (FIG. 6H, bottom panel).

Chain of CDK12 (Q9NYV4 whole entry): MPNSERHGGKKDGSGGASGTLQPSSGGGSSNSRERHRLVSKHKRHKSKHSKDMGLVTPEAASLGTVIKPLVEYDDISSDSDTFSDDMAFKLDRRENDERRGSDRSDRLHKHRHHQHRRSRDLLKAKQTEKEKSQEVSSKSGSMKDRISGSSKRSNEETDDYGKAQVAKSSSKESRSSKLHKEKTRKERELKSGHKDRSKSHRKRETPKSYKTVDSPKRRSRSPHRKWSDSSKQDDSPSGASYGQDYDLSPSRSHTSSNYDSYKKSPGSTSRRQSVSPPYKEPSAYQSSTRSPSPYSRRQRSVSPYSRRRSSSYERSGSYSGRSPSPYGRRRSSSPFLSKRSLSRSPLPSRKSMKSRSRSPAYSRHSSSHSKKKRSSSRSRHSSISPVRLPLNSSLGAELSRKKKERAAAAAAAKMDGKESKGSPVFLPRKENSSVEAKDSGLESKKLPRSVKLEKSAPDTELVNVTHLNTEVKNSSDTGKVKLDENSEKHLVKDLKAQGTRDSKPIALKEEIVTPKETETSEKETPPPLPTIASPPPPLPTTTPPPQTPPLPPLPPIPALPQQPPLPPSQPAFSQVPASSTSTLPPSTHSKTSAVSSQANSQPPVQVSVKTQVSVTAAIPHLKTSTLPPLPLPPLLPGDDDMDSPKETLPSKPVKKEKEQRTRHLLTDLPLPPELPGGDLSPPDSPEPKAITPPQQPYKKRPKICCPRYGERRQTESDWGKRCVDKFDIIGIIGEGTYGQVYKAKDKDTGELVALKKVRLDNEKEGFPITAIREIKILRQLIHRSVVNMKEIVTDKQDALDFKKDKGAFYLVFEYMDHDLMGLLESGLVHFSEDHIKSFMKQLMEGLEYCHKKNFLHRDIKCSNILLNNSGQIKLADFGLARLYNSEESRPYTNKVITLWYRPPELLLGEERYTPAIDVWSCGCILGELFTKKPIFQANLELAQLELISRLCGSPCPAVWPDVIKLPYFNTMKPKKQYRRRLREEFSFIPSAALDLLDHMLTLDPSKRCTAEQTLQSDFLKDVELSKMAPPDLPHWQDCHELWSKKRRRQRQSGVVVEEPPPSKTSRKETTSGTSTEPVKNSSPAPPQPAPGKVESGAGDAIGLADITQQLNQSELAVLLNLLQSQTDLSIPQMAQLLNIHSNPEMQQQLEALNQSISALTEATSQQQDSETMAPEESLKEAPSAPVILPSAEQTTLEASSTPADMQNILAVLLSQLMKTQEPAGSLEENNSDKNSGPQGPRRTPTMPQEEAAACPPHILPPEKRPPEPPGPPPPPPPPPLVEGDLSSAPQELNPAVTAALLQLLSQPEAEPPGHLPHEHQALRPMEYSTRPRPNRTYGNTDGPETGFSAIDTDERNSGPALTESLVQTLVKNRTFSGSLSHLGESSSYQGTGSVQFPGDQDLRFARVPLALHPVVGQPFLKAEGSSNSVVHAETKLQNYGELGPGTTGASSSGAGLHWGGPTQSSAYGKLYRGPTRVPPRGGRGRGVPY
Chain of CDK12 (O75909 whole entry partner): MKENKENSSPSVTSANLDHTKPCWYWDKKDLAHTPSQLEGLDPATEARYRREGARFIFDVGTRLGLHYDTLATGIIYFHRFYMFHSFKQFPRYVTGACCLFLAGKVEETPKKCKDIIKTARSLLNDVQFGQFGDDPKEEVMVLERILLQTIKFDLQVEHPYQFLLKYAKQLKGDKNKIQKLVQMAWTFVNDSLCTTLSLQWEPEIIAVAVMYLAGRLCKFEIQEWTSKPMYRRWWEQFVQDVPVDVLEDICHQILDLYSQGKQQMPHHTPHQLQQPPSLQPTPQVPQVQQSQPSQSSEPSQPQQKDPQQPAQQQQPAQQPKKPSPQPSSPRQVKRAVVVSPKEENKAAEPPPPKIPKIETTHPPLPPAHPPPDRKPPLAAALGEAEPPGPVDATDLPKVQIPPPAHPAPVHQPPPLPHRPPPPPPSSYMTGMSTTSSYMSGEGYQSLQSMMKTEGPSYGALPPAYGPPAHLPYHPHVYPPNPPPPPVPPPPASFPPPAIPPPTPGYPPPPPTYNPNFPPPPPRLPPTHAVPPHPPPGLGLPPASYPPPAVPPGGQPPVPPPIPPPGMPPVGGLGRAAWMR

phosphorylation of the T37/46 sites of 4E-BP1 by mTORC1 [1]: without affecting
Substance: Growth Arrest and DNA Damage-Inducible Proteins-Interacting Protein 1 [CRIF1]
presence of CRIF1 in CDK12 complexes (CDK12): present

Source: US20170157212A1, “CDK MODULATORS AND METHODS FOR THE TREATMENT OF CANCER” (Salk Institute for Biological Studies, priority 2015, published 2017)
